Data reported in patent US20260206755A1, “COMPOUNDS AND COMPOSITIONS HAVING KNOCK-DOWN OR BLOOD FEED INHIBITION ACTIVITY AGAINST INSECT PESTS” (priority 2017, published 2026).
Like-named read-outs stand apart in the source and are kept apart here.

Tested on: Anopheles stephensi
Assay: Anopheles stephensi treated well plate contact test: knockdown and mortality
Assay type: in vivo
Method: Examples Anopheles stephensi (Indian Malaria Mosquito)
The individual wells of twelve (12) well tissue culture plates were treated with 200 μl of an ethanol solution containing a test compound of Table 1 or Table 2 at a defined concentration and repeated with also 200 μl of an ethanol solution containing in addition 2 ppm TFNA-AM. Once the deposits were dry, five non-blood fed adult female Anopheles stephensi (between two to five day old) were added to each well, and sustained with a 10% sucrose solution in a cotton wool plug. Assessment of the knockdown after 1 hour, and mortality after 24 and 48 hours was carried out.
In case of multiple tests, the mean value is reported.

[1] = Anopheles stephensi, test compound 0.2 ppm, without TFNA-AM, after 24 hours, read-out: mortality % 24, without TFNA-AM
[2] = Anopheles stephensi, test compound 0.2 ppm, without TFNA-AM, after 48 hours, read-out: mortality % 48, without TFNA-AM
[3] = Anopheles stephensi, test compound 0.2 ppm, without TFNA-AM, knockdown after 1 hour, read-out: Knock Down, without TFNA-AM
[4] = Anopheles stephensi, test compound 2 ppm, without TFNA-AM, after 24 hours, read-out: mortality % 24, without TFNA-AM
[5] = Anopheles stephensi, test compound 2 ppm, without TFNA-AM, after 48 hours, read-out: mortality % 48, without TFNA-AM
[6] = Anopheles stephensi, test compound 2 ppm, without TFNA-AM, knockdown after 1 hour, read-out: Knock Down, without TFNA-AM
[7] = Anopheles stephensi, test compound 20 ppm, without TFNA-AM, after 24 hours, read-out: mortality % 24, without TFNA-AM
[8] = Anopheles stephensi, test compound 20 ppm, without TFNA-AM, after 48 hours, read-out: mortality % 48, without TFNA-AM
[9] = Anopheles stephensi, test compound 20 ppm, without TFNA-AM, knockdown after 1 hour, read-out: Knock Down, without TFNA-AM
[10] = Anopheles stephensi, test compound 200 ppm, without TFNA-AM, after 24 hours, read-out: mortality % 24, without TFNA-AM
[11] = Anopheles stephensi, test compound 200 ppm, without TFNA-AM, after 48 hours, read-out: mortality % 48, without TFNA-AM
[12] = Anopheles stephensi, test compound 200 ppm, without TFNA-AM, knockdown after 1 hour, adult females, read-out: Knock Down, without TFNA-AM
[13] = test compound 0.2 ppm plus 2 ppm TFNA-AM, after 48 hours
[14] = test compound 0.2 ppm plus 2 ppm TFNA-AM, knockdown after 1 hour
[15] = test compound 2 ppm plus 2 ppm TFNA-AM, after 24 hours
[16] = test compound 2 ppm plus 2 ppm TFNA-AM, after 48 hours
[17] = test compound 2 ppm plus 2 ppm TFNA-AM, knockdown after 1 hour
[18] = test compound 20 ppm plus 2 ppm TFNA-AM, after 24 hours
[19] = test compound 20 ppm plus 2 ppm TFNA-AM, after 48 hours
[20] = test compound 20 ppm plus 2 ppm TFNA-AM, knockdown after 1 hour
[21] = test compound 200 ppm plus 2 ppm TFNA-AM, after 24 hours
[22] = test compound 200 ppm plus 2 ppm TFNA-AM, after 48 hours
[23] = test compound 200 ppm plus 2 ppm TFNA-AM, knockdown after 1 hour
[24] = test compound 0.2 ppm plus 2 ppm TFNA-AM, after 24 hours

Molecule	mortality at 0.2 ppm [1]	mortality at 0.2 ppm [2]	pest or weed control at 0.2 ppm [3]	mortality at 2 ppm [4]	mortality at 2 ppm [5]	pest or weed control at 2 ppm [6]	mortality at 20 ppm [7]	mortality at 20 ppm [8]	pest or weed control at 20 ppm [9]	mortality % 48, with TFNA-AM [13]	Knock Down, with TFNA-AM [14]	mortality % 24, with TFNA-AM [15]	mortality % 48, with TFNA-AM [16]	Knock Down, with TFNA-AM [17]	mortality % 24, with TFNA-AM [18]	mortality % 48, with TFNA-AM [19]	Knock Down, with TFNA-AM [20]	mortality % 24, with TFNA-AM [21]	mortality % 48, with TFNA-AM [22]	Knock Down, with TFNA-AM [23]	further results
CO/C=C(/C(=O)OC)c1ccccc1Oc1ncc(C(F)(F)F)s1 [Compound 54]	0%	0%	0%	60%	40%	0%	100%	100%	100%	10%	90%	100%	100%	100%	100%	100%	100%	100%	100%	100%	mortality at 200 ppm [10]: 100%; mortality at 200 ppm [11]: 100%; pest or weed control at 200 ppm [12]: 100%
Emamectin benzoate										20%	100%	60%	60%	100%	100%	100%	100%	100%	100%	100%	mortality % 24, with TFNA-AM [24]: 30%; mortality % 24, without TFNA-AM (test compound 0.2 ppm, without TFNA-AM, after 24 hours): 0%; mortality % 48, without TFNA-AM (test compound 0.2 ppm, without TFNA-AM, after 48 hours): 0%; Knock Down, without TFNA-AM (test compound 0.2 ppm, without TFNA-AM, knockdown after 1 hour): 0%; mortality % 24, without TFNA-AM (test compound 2 ppm, without TFNA-AM, after 24 hours): 0%; mortality % 48, without TFNA-AM (test compound 2 ppm, without TFNA-AM, after 48 hours): 10%; Knock Down, without TFNA-AM (test compound 2 ppm, without TFNA-AM, knockdown after 1 hour): 0%; mortality % 24, without TFNA-AM (test compound 20 ppm, without TFNA-AM, after 24 hours): 40%; mortality % 48, without TFNA-AM (test compound 20 ppm, without TFNA-AM, after 48 hours): 90%; Knock Down, without TFNA-AM (test compound 20 ppm, without TFNA-AM, knockdown after 1 hour): 0%; mortality % 24, without TFNA-AM (test compound 200 ppm, without TFNA-AM, after 24 hours): 40%; mortality % 48, without TFNA-AM (test compound 200 ppm, without TFNA-AM, after 48 hours): 90%; Knock Down, without TFNA-AM (test compound 200 ppm, without TFNA-AM, knockdown after 1 hour, adult females): 0%
CN/C(=N/CC1CCOC1)N[N+](=O)[O-] (centres unmarked) [Dinotefuran]	0%	0%	0%	40%	40%	0%	40%	80%	0%	60%	100%		60%	100%	100%	100%	100%	100%	100%	100%	mortality at 200 ppm [10]: 100%; mortality at 200 ppm [11]: 100%; pest or weed control at 200 ppm [12]: 40%
Cc1c(COC(=O)[C@@H]2[C@H](/C=C(\Cl)C(F)(F)F)C2(C)C)cccc1-c1ccccc1 (racemic) [Bifenthrin]	100%	100%	20%	100%	100%	100%	100%	100%	100%	100%	100%	100%	100%	100%	100%	100%	100%				mortality at 0.02 ppm (Anopheles stephensi, test compound 0.02 ppm, without TFNA-AM, after 24 hours, read-out: mortality % 24, without TFNA-AM): 20%; mortality at 0.02 ppm (Anopheles stephensi, test compound 0.02 ppm, without TFNA-AM, after 48 hours, read-out: mortality % 48, without TFNA-AM): 60%; pest or weed control at 0.02 ppm (Anopheles stephensi, test compound 0.02 ppm, without TFNA-AM, knockdown after 1 hour, read-out: Knock Down, without TFNA-AM): 20%; mortality % 24, with TFNA-AM (test compound 0.02 ppm plus 2 ppm TFNA-AM, after 24 hours): 100%; mortality % 48, with TFNA-AM (test compound 0.02 ppm plus 2 ppm TFNA-AM, after 48 hours): 100%; Knock Down, with TFNA-AM (test compound 0.02 ppm plus 2 ppm TFNA-AM, knockdown after 1 hour): 100%; mortality % 24, with TFNA-AM [24]: 100%
NC(=O)c1cnccc1C(F)(F)F [TFNA-AM, 4-(trifluoromethyl)pyridine-3-carboxamide]																					mortality at 2 ppm (Anopheles stephensi, TFNA-AM 2 ppm alone, after 24 hours, read-out: mortality % 24, TFNA-AM alone): 18.3%; mortality at 2 ppm (Anopheles stephensi, TFNA-AM 2 ppm alone, after 48 hours, read-out: mortality % 48, TFNA-AM alone): 11.7%; Knock Down, TFNA-AM alone (TFNA-AM 2 ppm alone, knockdown after 1 hour): 75.5%
C/C=C(\C)C(=O)O[C@H]1C[C@@H](OC(C)=O)[C@@]2(C(=O)OC)CO[C@H]3[C@@H](O)[C@@](C)([C@]45O[C@@]4(C)[C@H]4C[C@@H]5O[C@@H]5OC=C[C@@]54O)[C@H]4[C@]1(CO[C@]4(O)C(=O)OC)[C@@H]32 [Azadirachtin]	0%	0%	0%	0%	0%	0%	0%	0%	0%	20%	100%	20%	20%	100%	60%	40%	100%	80%	80%	100%	mortality at 200 ppm [10]: 0%; mortality at 200 ppm [11]: 0%; pest or weed control at 200 ppm [12]: 0%; mortality % 24, with TFNA-AM [24]: 20%
Cc1cc(C(F)(C(F)(F)F)C(F)(F)F)ccc1NC(=O)c1cccc(I)c1C(=O)NC(C)(C)CS(C)(=O)=O [Flubendiamide]	0%	0%	0%	0%	0%	0%	0%	0%	0%	40%	100%	80%	40%	100%	80%	40%	100%	60%	40%	100%	mortality at 200 ppm [10]: 0%; mortality at 200 ppm [11]: 0%; pest or weed control at 200 ppm [12]: 0%; mortality % 24, with TFNA-AM [24]: 80%
CN/C(=N\[N+](=O)[O-])NCc1cnc(Cl)s1 [Clothianidin]	0%	0%	0%	0%	0%	0%	0%	20%	0%	0%	100%	100%	100%	100%	100%	100%	100%	100%	100%	100%	mortality at 200 ppm [10]: 0%; mortality at 200 ppm [11]: 20%; pest or weed control at 200 ppm [12]: 0%
